# System: MDA-MB-231 xenograft
# Experiment: RPPA of protein expression, MDA-MB-231 xenograft endpoint analysis
# Type: in vivo, nude mice
# Conditions: 4 mg/kg/day vs. PBS
# Procedure: Frozen xenograft tissue samples were embedded in OCT, and 8 μm sections were obtained using a cryostat. […] The resulting whole tissue lysates were boiled for 8 min at 100° C. and then printed onto a nitrocellulose slide (Avid, Grace Biolabs) along with a BSA protein concentration curve to estimate total protein concentration in each lysate. Total protein levels were assessed in each sample by staining with Sypro Ruby Protein Blot Stain (Invitrogen) according to manufacturer's instructions.
# The total protein concentration in each sample was estimated by printing onto a nitrocellulose slide along with a BSA standard concentration curve, and total protein levels were assessed by staining with Sypro Ruby Protein Blot Stain (Invitrogen) according to manufacturer's instructions. Tissue lysates were diluted to 250 μg/ml in extraction buffer and stored at −80° C. prior to printing of arrays. RPPA printing and analysis of xenograft samples was conducted as previously described (Wulfkuhle et al., Clin Cancer Res. 2012; 18:6426-35). Antibody staining intensities were quantified using the MicroVigene v5 Software Package (Vigenetech). Signaling pathway activation was evaluated by staining the arrays with 156 antibodies against signaling endpoints, mainly phosphorylated and cleaved protein products. Before use for RPPA analysis, antibody specificity was confirmed by Western blot and analysis as previously described (Wulfkuhle et al., Clin Cancer Res. 2012; 18:6426-35).
# [1] = *separate RPPA analysis, separate β actin probe
smiles,measurement,setting,value
"CCCCCCNC(=N)NC(=N)NCc1ccccc1 [HBB, N1-hexyl-N5-benzyl-biguanide]",fold change: 4EBP1 S65,,1.143
same,fold change: 4EBP1 T37/46,,0.828
same,fold change: 4EBP1 T70,,1.117
same,fold change: A-Raf S299,,1.335
same,fold change: AKT S473,,1.795
same,fold change: AKT T308,,1.987
same,fold change: ALK,,1.368
same,fold change: ALK Y1604,,1.302
same,fold change: AMPKalpha S485,,2.359
same,fold change: AMPKbeta S108,,1.081
same,fold change: ATF2 T69/71,,0.959
same,fold change: ATM S1981,,1.438
same,fold change: ATP CItrate Lyase S454,,1.229
same,fold change: ATR S428,,1.345
same,fold change: AXL,,1.199
same,fold change: Acetyl-CoA Carboxylase S79,,1.295
same,fold change: Actin beta,,1.000
same,fold change: Aurora A T288/B T232/C T198,,1.651
same,fold change: B-RAF,,1.341
same,fold change: B-Raf S445,,1.392
same,fold change: BAD,,1.198
same,fold change: BAD S112,,1.355
same,fold change: BAD S136,,1.550
same,fold change: BCL-2,,1.315
same,fold change: BIM,,1.211
same,fold change: Bak,,1.254
same,fold change: Bax,,1.132
same,fold change: Bcl_xL,,1.275
same,fold change: Beclin 1,,1.235
same,fold change: CREB S133,,1.164
same,fold change: Cl Caspase 3 D175,,1.484
same,fold change: Cl Caspase 9 D315,,1.437
same,fold change: Cl Caspase 9 D330,,1.492
same,fold change: Cleaved PARP D214,,1.223
same,fold change: Cofilin S3,,1.783
same,fold change: CrkL Y207,,1.186
same,fold change: Cyclin A,,1.513
same,fold change: Cyclin B1 V152,,1.294
same,fold change: Cyclin D1 (G124-326),,1.272
same,fold change: Cyclin D1 T286,,1.693
same,fold change: E-Cadherin,,1.903
same,fold change: EGFR,,1.184
same,fold change: EGFR Y992,,1.970
same,fold change: EGFR Y1068,,1.557
same,fold change: EGFR Y1148,,1.407
same,fold change: EGFR Y1173,,1.388
same,fold change: ER TOTAL,,1.304
same,fold change: ER alpha S118,,1.293
same,fold change: ERK 1-2 T202/Y204,,1.337
same,fold change: ERK TOTAL,,1.242
same,fold change: Elk S383,,1.926
same,fold change: Ephrin A3 Y799/A4 Y799/A5 Y833,,1.553
same,fold change: ErbB2/HER2 Y877,,1.283
same,fold change: ErbB2/HER2 Y1248,,1.717
same,fold change: ErbB3/HER3,,0.828
same,fold change: ErbB3/HER3 Y1197,,1.363
same,fold change: ErbB3/HER3 Y1289,,1.558
same,fold change: FAK Y576/577,,1.291
same,fold change: FKHR T24/FKHRL1 T32,,1.039
same,fold change: FKHRL1 S253,,1.671
same,fold change: FOXO1 S256,,1.338
same,fold change: GRB2,,1.013
same,fold change: GSK-3alpha/beta S21/9,,1.294
same,fold change: HIF-1 alpha,,1.096
same,fold change: HSP27 S82,,0.821
same,fold change: HSP70,,1.429
same,fold change: HSP90a T5/7,,1.555
same,fold change: Heregulin,,0.654
same,fold change: Histone H3 S28,,1.222
same,fold change: IGF1R Y1135/36-IR Y1150/51,,1.118
same,fold change: IGF-1R Y1131/IR Y1146,,1.596
same,fold change: IGFBP7,,1.180
same,fold change: IL6,,1.192
same,fold change: IRS1,,0.996
same,fold change: IkappaB-alpha S32/36,,1.317
same,fold change: Insulin Receptor Beta,,1.219
same,fold change: Jak2 Y1007,,1.647
same,fold change: KI67,,1.120
same,fold change: LC3B,,1.109
same,fold change: LIMK1 T508/LIMK2 T505,,1.351
same,fold change: LKB1 S428,,1.652
same,fold change: MARCKS S152/156,,1.421
same,fold change: MCSFR Y723,,1.215
same,fold change: MDM2 S166,,1.189
same,fold change: MEK 1/2 S217/221,,1.772
same,fold change: Met Y1234/1235,,1.556
same,fold change: Musashi,,1.320
same,fold change: NF-kappaB p65 S536,,1.655
same,fold change: PAK1 S199/204-PAK2 S192/197,,1.852
same,fold change: PAK1 T423/PAK2 T402,,1.245
same,fold change: PDGFR alpha Y754,,1.266
same,fold change: PDGFR beta,,1.147
same,fold change: PDGFR beta Y716,,0.981
same,fold change: PDK1 S241,,1.118
same,fold change: PDL1,,0.548
same,fold change: PKC delta/theta S643/S676,,1.447
same,fold change: PKC zeta/lambda T410/403,,0.971
same,fold change: PLK1 T210,,1.301
same,fold change: PTEN,,1.334
same,fold change: PTEN S380,,1.440
same,fold change: RAS TOTAL,,1.486
same,fold change: Ras_GRF1,,1.237
same,fold change: Rb S780,,1.516
same,fold change: Ret Y905,,1.885
same,fold change: Ros Y2274,,1.481
same,fold change: S6 Ribosomal Protein S240/244,,0.457
same,fold change: SAPK/JNK T183/Y185,,1.410
same,fold change: SGK1 S78,,1.510
same,fold change: SMAD2 S245/250/255,,1.425
same,fold change: STAT3 S727,,1.302
same,fold change: Shc Y317,,1.307
same,fold change: Src Y527,,1.356
same,fold change: Src family Y416,,0.804
same,fold change: Stat 1 Y701,,1.092
same,fold change: Stat3 Y705,,1.421
same,fold change: Stat 5 Y694,,0.929
same,fold change: TGF-beta,,1.188
same,fold change: TNF alpha,,1.119
same,fold change: Tuberin/TSC2 Y1571,,1.417
same,fold change: VEGFR2 Y996,,1.205
same,fold change: Vimentin,,1.021
same,fold change: XIAP,,1.311
same,fold change: c-Abl T735,,1.596
same,fold change: c-Abl Y245,,1.215
same,fold change: c-ErbB2/HER2,,1.184
same,fold change: c-Kit Y703,,1.408
same,fold change: c-Met TOTAL,,1.220
same,fold change: c-Myc,,1.078
same,fold change: c-Raf S338,,1.229
same,fold change: eIF4G S1108,,1.471
same,fold change: mTOR,,0.679
same,fold change: mTOR S2448,,1.515
same,fold change: p27 Kip1,,1.253
same,fold change: p27 T187,,1.152
same,fold change: p38 MAP Kinase T180/Y182,,1.075
same,fold change: p53,,1.390
same,fold change: p53 S15,,1.586
same,fold change: p70S6 Kinase,,1.193
same,fold change: p70 S6 Kinase S371,,1.621
same,fold change: p70 S6 Kinase T389,,2.148
same,fold change: p70 S6 Kinase T412,,1.352
same,fold change: p90RSK T359/S363,,1.248
same,fold change: pYAP S127,,1.022
same,fold change: AMPK T172*,[1],3.561
same,fold change: AMPK total*,[1],0.555
same,fold change: PKM2 Y105*,[1],1.403
same,fold change: PKM2 total*,[1],1.339

# From patent US20180177749A1, “USE OF CYP EXPRESSION TO DIRECT THERAPEUTIC INTERVENTION IN CANCER” (REGENTS OF THE UNIVERSITY OF MINNESOTA, priority 2016, published 2018)
